Data reported in patent US5965088A, “Method for providing rapid disinfection of contact lenses” (priority 1997, dated 1999).
Read-outs that look alike come from different tables or passages of the source.

What was measured:
[1] = Ocular irritation screening study in the rabbit (Draize score, soaked soft lenses); format: in vivo; settings: rabbit, in vivo, topical or ocular; 4 ppm formulation; rabbits; read-out: safety margin relative to initial onset of abnormal ocular health
Experimental: A series of formulations were prepared in which the amount of alexidine were, respectively 4 ppm (test 1), 6 ppm (test 2), 8 ppm (test 3), 10 ppm (test 4), 12 ppm (test 5), 15 ppm (test 6), 18 ppm (test 7), 22 ppm (test 8), 27 ppm (test 9), 33 ppm (test 10), 40 ppm (test 11) and 50 ppm (test 12). These test solutions of alexidine were used in soaking J&J Sure Vue® (etafilcon A) lenses (soft lenses) in 2.5 mL of solution for 1 week or more in order to reach maximal alexidine uptake.
An ocular irritation screening study was conducted in the rabbit to determine the threshold for ocular irritation. Eyes treated with the lenses were compared to a contralateral control eye. Treated lenses were placed on the right eye of rabbits; control lenses were placed on the left eye. Any lenses displaced from the eyes during the lens wear day were reinserted after rinsing with 0.9% sodium chloride USP solution (SC). Eyes were examined with the aid of a direct light source before lens placement, at 50-70 minutes, 7-8 hours, 23-24 hours, and 30-32 hours after placement. Macroscopic observations were recorded in accordance with criteria in the Draize^* score system. The maximum total score is the sum of all scores obtained for the cornea, iris, and conjunctivae. Total maximum score possible is 110 per eye, 80 with respect to the cornea, 10 with respect to the iris, and 20 with respect to the conjunctivae.
*Draize, J. H., G. Woodward and H. O. Calvery. 1944. Methods for the study of irritation and toxicity of substances applied topically to the skin and mucous membranes. J. Pharmacol. Exp. Ther. 82:377-390.

[2] = test system: Pseudomonas aeruginosa (ATCC 9027); test: Antimicrobial efficacy (stand-alone log reduction), P. aeruginosa; format: cell-based; settings: for log reduction at 4 µg/mL: 4.0 ppm alexidine in ReNu MPS
Experimental: This Example illustrates the microbiocidal efficacy of solutions according to the present invention. The antimicrobial efficacy of each of various compositions for the chemical disinfection of contact lenses was evaluated. Microbial challenge inoculums were prepared using Pseudomonas aeruginosa (ATCC 9027), Staphylococcus aureus (ATCC 6538), Serratia marcescens (ATCC 13880), Candida albicans (ATCC 10231), and Fusarium solani (ATCC 36031). The test organisms were cultured on appropriate agar and the cultures were harvested using sterile DPBST (Dulbecco's Phosphate Buffered Saline plus 0.05% w/v polysorbate 80) or a suitable diluent and transferred to a suitable vessel. Spore suspensions were filtered through sterile glass wool to remove hyphal fragments. Serratia marcescens, as appropriate, was filtered (eg., through a 1.2 μ filter) to clarify the suspension. After harvesting, the suspension was centrifuged at no more than 5000× g for a maximum of 30 minutes at 20-25° C. The supernatant was poured off and resuspended in DPBST or other suitable diluent. The suspension was centrifuged a second time, and resuspended in DPBST or other suitable diluent. All challenge bacterial and fungal cell suspensions were adjusted with DPBST or other suitable diluent to 1×10^7 -10^8 cfu/mL. The appropriate cell concentration may be estimated by measuring the turbidity of the suspension, for example using a spectrophotometer at a preselected wavelength, for example 490 nm. One tube was prepared containing a minimum of 10 mL of test solution per challenge organism. Each tube of the solution to be tested was inoculated with a suspension of the test organism sufficient to provide a final count of 1.0×10^5 -10^6 cfu/mL, the volume of the inoculum not exceeding 1% of the sample volume. Dispersion of the inoculum was ensured by vortexing the sample for at least 15 seconds. The inoculated product was stored at 10-25° C. Aliquots in the amount of 1.0 mL were taken of the inoculated product for determination of viable counts after certain time periods of disinfection. The time points for the bacteria were 25, 50, 75, and 100% of the minimum disinfection time. Yeast and mold were tested at an additional timepoint of at least 400% of the minimum disinfection time. The suspension was mixed well by vortexing vigorously for at least 5 second. The 1.0 mL aliquots removed at the specified time intervals were subjected to a suitable series of decimal dilutions in validated neutralizing media. The suspensions were mixed vigorously and incubated for a suitable period of time to allow for neutralization of the microbial agent. The viable count of organisms was determined in appropriate dilutions by preparation of triplicate plates of trypticase soy (TSA) agar for bacteria and Sabouraud dextrose agar (SDA) for mold and yeast. The bacterial recovery plates were incubated at 30-35° C. for 2-4 days. The yeast was incubated at 20-30° C. for 2-4 days and mold recovery plates at 20-25° C. for 3-7 days. The average number of colony forming units was determined on countable plates. Countable plates refer to 30-300 cfu/plates for bacteria and yeast, and 8 to 80 cfu/plate for mold except when colonies are observed only for the 10^0 or 10^-1 dilution plates. The microbial reduction was then calculated at the specified time points. […] Following inoculation in a validated neutralizing broth and incubation for an appropriate period of time, the inoculum control must be between 1.0×10^5 -1.0×10^6 cfu/mL
The solutions were evaluated based on the performance requirement referred to as the "Stand-Alone Procedure for Disinfecting Products" (hereafter the "stand-alone test") and is based on the Disinfection Efficacy Testing for contact lens care products under the Draft Premarket Notification (510(k)) Guidance Document For Contact Lens Care Products dated Apr. 1, 1996, prepared by the U.S. Food and Drug Administration, Division of Ophthalmic Devices. […]

For `CCCCC(CC)CNC(=N)NC(=N)NCCCCCCNC(=N)NC(=N)NCC(CC)CCCC.Cl.Cl` (centres unmarked) [Alexidine.2HCl, 1,1 '-hexamethylenebis(5-(2-ethylhexyl)-biguanide) dihydrochloride], the selectivity ratio [1] was 2.5, the log reduction at 4 ppm ([2]; ATCC9027, 2.5 min, 4.0 ppm, aged 18 months, Exp. 1, 2.5 min, read-out: Log Reduction) was 2.4 and the log reduction at 4 ppm ([2]; ATCC9027, 2.5 min, 4.0 ppm, aged 18 months, Exp. 2, 2.5 min, read-out: Log Reduction) was 1.9. It also gave a log reduction at 4 ppm ([2]; ATCC9027, 2.5 min, 4.0 ppm, aged 18 months, Exp. 3, 2.5 min, read-out: Log Reduction) of 2.7, a log reduction at 1 ppm ([2]; ATCC9027, 5 min, 1.0 ppm, read-out: Log Reduction at 5 Minutes) of 0.5 and a log reduction at 2 ppm ([2]; ATCC9027, 5 min, 2.0 ppm, read-out: Log Reduction at 5 Minutes) of 3. For the same compound, the log reduction at 3 ppm ([2]; ATCC9027, 5 min, 3.0 ppm, read-out: Log Reduction at 5 Minutes) was 3.8, the log reduction at 4 ppm ([2]; ATCC9027, 5 min, 4.0 ppm, aged 18 months, Exp. 1, 5.0 min, read-out: Log Reduction) was 3.2 and the log reduction at 4 ppm ([2]; ATCC9027, 5 min, 4.0 ppm, aged 18 months, Exp. 2, 5.0 min, read-out: Log Reduction) was 3.2. For the same compound, the log reduction at 4 ppm ([2]; ATCC9027, 5 min, 4.0 ppm, aged 18 months, Exp. 3, 5.0 min, read-out: Log Reduction) was 3.1, the log reduction at 4 ppm ([2]; ATCC9027, 5 min, 4.0 ppm, read-out: Log Reduction at 5 Minutes) was 3.7 and the log reduction at 5 ppm ([2]; ATCC9027, 5 min, 5.0 ppm, read-out: Log Reduction at 5 Minutes) was over 5. For the same compound, the log reduction at 4 ppm ([2]; ATCC9027, 0.125 h, 4.0 ppm, aged 18 months, Exp. 1, 7.5 min, read-out: Log Reduction) was 3.4, the log reduction at 4 ppm ([2]; ATCC9027, 0.125 h, 4.0 ppm, aged 18 months, Exp. 2, 7.5 min, read-out: Log Reduction) was 3.8 and the log reduction at 4 ppm ([2]; ATCC9027, 0.125 h, 4.0 ppm, aged 18 months, Exp. 3, 7.5 min, read-out: Log Reduction) was 4.1. It also gave a log reduction at 1 ppm ([2]; ATCC9027, 10 min, 1.0 ppm, read-out: Log Reduction at 10 Minutes) of 3.2, a log reduction at 2 ppm ([2]; ATCC9027, 10 min, 2.0 ppm, read-out: Log Reduction at 10 Minutes) of 4.3 and a log reduction at 3 ppm ([2]; ATCC9027, 10 min, 3.0 ppm, read-out: Log Reduction at 10 Minutes) of over 5. The log reduction at 4 ppm ([2]; ATCC9027, 10 min, 4.0 ppm, aged 18 months, Exp. 1, 10.0 min, read-out: Log Reduction) was over 4.8, the log reduction at 4 ppm ([2]; ATCC9027, 10 min, 4.0 ppm, aged 18 months, Exp. 2, 10.0 min, read-out: Log Reduction) was over 4.8 and the log reduction at 4 ppm ([2]; ATCC9027, 10 min, 4.0 ppm, aged 18 months, Exp. 3, 10.0 min, read-out: Log Reduction) was 4.9. The log reduction at 4 ppm ([2]; ATCC9027, 10 min, 4.0 ppm, read-out: Log Reduction at 10 Minutes) was over 5, the log reduction at 5 ppm ([2]; ATCC9027, 10 min, 5.0 ppm, read-out: Log Reduction at 10 Minutes) was over 5 and the log reduction at 4 ppm ([2]; ATCC9027, 0.25 h) was 4. For the same compound, the log reduction at 4 ppm ([2]; ATCC9027, 0.25 h, 4.0 ppm, Ex. 7, different lot aged 18 months, 15 min, read-out: Log Reduction) was 4.2, the log reduction at 4 ppm ([2]; ATCC9027, 0.25 h, 4.0 ppm, Ex. 8, different batch aged 19 months at 25 °C, 15 min, read-out: Log Reduction) was 3.3 and the log reduction at 4 ppm ([2]; ATCC9027, 0.5 h, 4.0 ppm, Ex. 6, aged 19 months at 25 °C, 30 min, read-out: Log Reduction) was over 4.8. The log reduction at 4 ppm ([2]; ATCC9027, 0.5 h, 4.0 ppm, Ex. 7, different lot aged 18 months, 30 min, read-out: Log Reduction) was over 4.8, the log reduction at 4 ppm ([2]; ATCC9027, 0.5 h, 4.0 ppm, Ex. 8, different batch aged 19 months at 25 °C, 30 min, read-out: Log Reduction) was over 4.8 and the log reduction at 4 ppm ([2]; ATCC9027, 0.75 h, 4.0 ppm, Ex. 6, aged 19 months at 25 °C, 45 min, read-out: Log Reduction) was over 4.8. It also gave a log reduction at 4 ppm ([2]; ATCC9027, 0.75 h, 4.0 ppm, Ex. 7, different lot aged 18 months, 45 min, read-out: Log Reduction) of over 4.8, a log reduction at 4 ppm ([2]; ATCC9027, 0.75 h, 4.0 ppm, Ex. 8, different batch aged 19 months at 25 °C, 45 min, read-out: Log Reduction) of over 4.8 and a log reduction at 1 ppm ([2]; ATCC9027, 1 h, 1 ppm, 1 hr, read-out: Log Reduction) of over 5. The log reduction at 2 ppm ([2]; ATCC9027, 1 h, 2 ppm, 1 hr, read-out: Log Reduction) was over 5, the log reduction at 3 ppm ([2]; ATCC9027, 1 h, 3 ppm, 1 hr, read-out: Log Reduction) was over 5 and the log reduction at 4 µg/mL ([2]; ATCC9027, 1 h, 1 hr) was over 4.8. For the same compound, the log reduction at 4 ppm ([2]; ATCC9027, 1 h, 4 ppm, 1 hr, read-out: Log Reduction) was over 5, the log reduction at 4 ppm ([2]; ATCC9027, 1 h, 4.0 ppm, Ex. 6, aged 19 months at 25 °C, 60 min, read-out: Log Reduction) was over 4.8 and the log reduction at 4 ppm ([2]; ATCC9027, 1 h, 4.0 ppm, Ex. 7, different lot aged 18 months, 60 min, read-out: Log Reduction) was over 4.8. It also gave a log reduction at 4 ppm ([2]; ATCC9027, 1 h, 4.0 ppm, Ex. 8, different batch aged 19 months at 25 °C, 60 min, read-out: Log Reduction) of over 4.8, a log reduction at 5 ppm ([2]; ATCC9027, 1 h, 5 ppm, 1 hr, read-out: Log Reduction) of over 5 and a log reduction at 4 µg/mL ([2]; ATCC9027, 2 h, 2 hr) of over 4.8. It also gave a log reduction at 4 µg/mL ([2]; ATCC9027, 3 h, 3 hr) of over 4.8 and a log reduction at 4 µg/mL ([2]; ATCC9027, 4 h, 4 hr) of over 4.8.
